Experimental findings from patent US7101872B2, “Farnesyl dibenzodiazepinone, and processes for its production” (Ecopia BioSciences, Inc., priority 2003, dated 2006) are described below.

One assay has as its system SK-MEL 28. Briefly: MTT cell proliferation, tumor cell lines. Format: cell-based. The note with it: Homo sapiens, SK-MEL 28, Melanoma, 96 hrs. On the procedure: (§1) Culture conditions: The cell lines listed in Table 4 were used to characterize the cytotoxicity of ECO-04601 against human and animal tumor cell lines. […] Cells were passaged twice to three times per week. Viability was examined by staining with 0.25% trypan blue and only flasks where cell viability was >95% were used for this study. Cell lines amplification and plating: Tumor cells were seeded (1–3×10^3 cells per 100 μL) in 96-wells flat bottom microtiter plates and incubated at 37° C. and 5% CO2 for 16 hrs before treatment in drug-free medium supplemented with 10% serum. Evaluation of inhibitory activity on cell proliferation: Cells were incubated for 96 hrs with 6 log10-fold concentrations of the test substance starting at 10 μg/ml (20 μM). The test substance stock solution (5 mg/mL) was initially diluted at […] in medium supplemented with serum. Other concentrations were then obtained from 1/10 fold successive dilutions in the same supplemented medium. Cell survival was evaluated 96 h later by replacing the culture media with 150 μL fresh medium containing 10 mM 4-(2-hydroxyethyl)-1-piperazineethanesulfonic acid buffer, pH 7.4. Next, 50 μL of 2.5 mg/mL of 3-(4,5-dimethylthiazo-2-yl)-2,5-diphenyltetrazolium bromide (MTT) in phosphate buffer solution, pH 7.4, was added. After 3–4 h of incubation at 37° C., the medium and soluble MTT was removed, and 200 μL of dimethylsulfoxide was added to dissolve the precipitate of reduced MTT followed by addition of 25 μL glycine buffer (0.1 M glycine plus 0.1 M NaCl, pH 10.5). The absorbance was determined at 570 nm with a microplate reader.

The subject of a further assay is B16 (F10). Briefly: MTT cell proliferation, tumor cell lines. The note with it: Mus musculus, Melanoma, 96 hrs. The format is cell-based. How it is done:
as §1

A further assay deals with Panc 10.05. Briefly: MTT cell proliferation, tumor cell lines. The format is cell-based. Conditions: Homo sapiens, Panc1005, Panc 10.05, Pancreatic carcinoma, 96 hrs. On the procedure: as §1
The next assay deals with SK-MEL-1. Description: MTT cell proliferation, tumor cell lines. The format is cell-based. The note with it: Homo sapiens, SK-MEL-1, Melanoma, 96 hrs. On the procedure: as §1
The next assay has as its system SK-MEL 28^VEGF. Briefly: MTT cell proliferation, tumor cell lines. The format is cell-based. The note with it: Homo sapiens, Melanoma (expressing VEGF), 96 hrs. On the procedure:
as §1

For another assay, the system named is MCF-7. Briefly: MTT cell proliferation, tumor cell lines. Format: cell-based. Conditions: Homo sapiens, MCF7, MCF-7, Breast adenocarcinoma, 96 hrs. On the procedure:
as §1

The test system of a further assay is K562. Description: MTT cell proliferation, tumor cell lines. Format: cell-based. The note with it: Homo sapiens, K562, Leukemia myelogeneous, 96 hrs. On the procedure: as §1
The test system of the next assay is P388. Description: MTT cell proliferation, tumor cell lines. Format: cell-based. Conditions: Mus musculus, P388, Leukemia, 96 hrs. How it is done:
as §1

The next assay relates to Panc 96. Briefly: MTT cell proliferation, tumor cell lines. The format is cell-based. Conditions: Homo sapiens, Panc 96, Pancreatic carcinoma, 96 hrs. On the procedure:
as §1

Another assay concerns I83. Description: MTT cell proliferation, tumor cell lines. Format: cell-based. Conditions: Homo sapiens, I83, Leukemia, 96 hrs. How it is done:
as §1

Assay [1] deals with C6 glioblastoma cell-bearing mice. Description: In vivo glioma model, treatment from day 10 after inoculation. Also on record: species or system Mus musculus nude mice. Conditions: 20–30 mg/kg; versus vehicle-treated mice (FIG. 11). How it is done:
The aim of this study was to test whether ECO-04601 administered by i.p. route prevents or delays tumor growth in C6 glioblastoma cell-bearing mice, and to determine an effective dosage regimen.
Animal experiments were performed according to ethical guidelines of animal experimentation (Charte du comité d'éthique du CNRS, juillet 2003) and the English guidelines for the welfare of animals in experimental neoplasia (WORKMAN, P., […], P., BALKWILL, F., et al. (1998). United Kingdom Coordinating Committee on Cancer Research (UKCCCR) Guidelines for the welfare of animals in experimental neoplasia (Second Edition, July 1997; British Journal of Cancer 77:1–10). Any dead or apparently sick mice were promptly removed and replaced with healthy mice. Sick mice were euthanized upon removal from the cage. Animals were maintained in rooms under controlled conditions of temperature (23±2° C.), humidity (45±5%), photoperiodicity (12 hrs light/12 hrs dark) and air exchange. […] The cells were counted in a hemocytometer and their viability assessed by 0.25% trypan blue exclusion. […]
In a second series of experiments, treatment started at day 10 following inoculation of C6 cells when tumors became palpable (around 100 to 200 mm^3). […] Tumor volume was measured every second day until the end of the treatment using callipers. […]

As usually defined, the IC50 is the concentration that inhibits the measured activity by half.

In the case of `CC(C)=CCC/C(C)=C/CC/C(C)=C/CN1C(=O)c2cccc(O)c2Nc2c(O)cc(O)cc21` [ECO-04601, 10-farnesyl-4,6,8-trihydroxy-dibenzodiazepin-11-one], the IC50 in the assay on SK-MEL 28 was 14 µM; in the assay on B16 (F10) it was 11.4 µM; in the assay with Panc 10.05 it was 14.2 µM; with SK-MEL-1 it was 14.1 µM; with SK-MEL 28^VEGF, 14.3 µM; in the assay on MCF-7 it was 9.7 µM. The IC50 was 8.6 µM in the assay on K562, 10.9 µM with P388, 12.5 µM in the assay with Panc 96 and 2.7 µM with I83. In addition, the “Histological analysis of tumor sections” value in assay [1] was “cell density was decreased and the nuclei of remaining tumor cells appeared larger and pycnotic”.
